The source made the active and inactive calls. No cut-off for these calls is given here.
Legend:
[1] = test system: PC-12; experiment: Neuritogenic activity in rat PC12 cells assessed as induction of neural differentiation at 5 to 10 uM incubated for 96 hrs by microscopic analysis; type: functional, cell-based; settings: dose 5-10 µM
[2] = Fluorescent property of compound in acetonitrile assessed as wavelength of emission; type: physicochemical
[3] = test system: PC-12; experiment: Induction of neural differentiation in rat PC12 cells assessed as increase in Tuj-1 expression at 10 uM incubated for 96 hrs by immunofluorescence staining based assay; type: functional, cell-based
[4] = Drug uptake in rat PC12 cells at 20 uM incubated upto 2 hrs by HPLC analysis; type: ADME, cell-based; settings: pc-12, 2 h
[5] = Fluorescent property of compound in DMSO assessed as wavelength of emission; type: physicochemical
[6] = Fluorescent property of compound in DMSO assessed as wavelength of excitation; type: physicochemical
[7] = Fluorescent property of compound in methanol assessed as wavelength of emission; type: physicochemical
[8] = test system: PC-12; experiment: Neuritogenic activity in rat PC12 cells assessed as induction of neural differentiation incubated for 96 hrs by microscopic analysis; type: functional, cell-based; settings: dose > 5.0 µM
[9] = Fluorescent property of compound in chloroform as wavelength of excitation; type: physicochemical
[10] = Fluorescent property of compound in chloroform assessed as wavelength of emission; type: physicochemical
[11] = Drug uptake in cytoplasm of rat PC12 cells incubated for 24 hrs by fluorescence staining based microscopy; type: ADME, subcellular; settings: pc12, 24 h
[12] = test system: PC-12; experiment: Neuritogenic activity in NGF-insensitive rat PC12 cells assessed as fold increase in induction of neural differentiation at 20 uM incubated for 96 hrs by microscopic analysis relative to control; type: functional
[13] = Fluorescent property of compound in toluene assessed as wavelength of excitation; type: physicochemical
[14] = Fluorescent property of compound in acetonitrile assessed as wavelength of excitation; type: physicochemical
[15] = Fluorescent property of compound in methanol assessed as wavelength of excitation; type: physicochemical
[16] = Fluorescent property of compound in toluene assessed as wavelength of emission; type: physicochemical
[17] = Drug uptake in rat PC12 cells by HPLC analysis; type: ADME, cell-based; settings: pc-12
[18] = Drug metabolism in rat PC12 cells assessed as formation of 3-amino-5,6,7,8-tetrahydrothieno[2,3-b]quinoline-2-carbonitrile metabolite by fluorescence based assay; type: ADME, cell-based; settings: pc-12
[19] = Drug uptake in rat PC12 cells by fluorescence based assay; type: ADME, cell-based; settings: pc-12
[20] = Drug metabolism in rat PC12 cells assessed as formation of 3-amino-5,6,7,8-tetrahydrothieno[2,3-b]quinoline-2-carbonitrile metabolite by HPLC analysis; type: ADME, cell-based; settings: pc-12

CC(=O)Nc1c(C#N)sc2nc3c(cc12)CCCC3
Activity [1]: inactive

N#Cc1sc2nc(N3CCCCC3)c3c(c2c1N)CCCC3
Activity [1]: inactive

N#Cc1sc2nc3c(cc2c1N)CCC3
Activity [1]: Active

CCOC(=O)c1sc2nc3c(cc2c1N)CCCC3
Activity [1]: inactive

CC(=O)c1sc2nc3c(cc2c1N)CCCC3
Activity [1]: inactive

N#Cc1sc2nc3c(cc2c1N)CCCC3
Activity [1]: Active
Activity [2]: 460 nm
Activity [3]: Active
Drug uptake [4]: Active
Activity [5]: 478 nm
Activity [6]: 359 nm
Activity [7]: 485 nm
Activity [8]: Dose-Dependent Effect
Activity [9]: 343 nm
Activity [10]: 453 nm
Drug uptake [11]: Active
fold change (FC) [12]: 20
Activity [13]: 343 nm
Activity [14]: 345 nm
Activity [15]: 356 nm
Activity [16]: 434 nm

NC(=O)c1sc2nc3c(cc2c1N)CCCC3
Activity [1]: inactive

N#Cc1sc2nc(N3CCOCC3)c3c(c2c1N)CCCC3
Activity [1]: inactive

N#Cc1sc2ncc3c(c2c1N)CCCC3
Activity [1]: Active

N#Cc1sc2ncccc2c1N
Activity [1]: inactive

N#Cc1sc2nc3c(cc2c1NC=O)CCCC3
Activity [1]: Active
Drug uptake [17]: Active
Activity [3]: Active
Activity [8]: Dose-Dependent Effect
Drug metabolism [18]: Metabolite_Detected
Drug uptake [19]: Active
Drug metabolism [20]: Metabolite_Detected
